Results: patent US10100011B2, “Pentadienoyl piperidine derivative and use thereof” (Industry-Academic Cooperation Foundation, Yonsei University, priority 2014, dated 2018)

Assays:
[1] = test system: C57BL/6J mice; experiment: Body weight and visceral fat weight in mice fed high-fat diet; assay type: in vivo, mouse; details: high-fat diet with about 0.05% compound (sibutramine about 0.01%), 10 weeks
Procedure: An obesity induction diet used in this experiment was a high-fat diet (HFD: 40% fat calories, 17 g of lard+3% corn oil/100 g diet), and the compositions of diets including the LJ-2501, LJ-2488, LJ-2495, LJ-2496 compounds were identical to that of HFD, except that each of the compounds was included in an amount of about 0.05% (Table 2). As a control drug, an anti-obesity drug, sibutramine (Sibut), was added in an amount of about 0.01% to the high-fat diet and a normal diet group (Chow) was fed with commercial rodent chow.
5-week old 40 male C57BL/6J mice (Orient Bio., Korea) were fed with hard feed and accommodated in a laboratory environment for one week. Subsequently, in accordance with a randomized block method, the mice were randomly grouped into a normal diet group, a high-fat diet control group, two experimental substance groups, and […] and raised for a total of 10 weeks (n=8/group). Diets were supplied with water between 10 am and 11 am every day. An intake amount was measured every day and the body weights of the mice were measured every week. To prevent temporal weight change due to feed intake, feedboxes were removed and, after two hours, the body weights were measured. The experimental animals were fasted for 12 hours or more and then anesthetized with diethyl ether, followed by collecting blood, liver, and visceral adipose tissues (epididymal fat, perirenal fat, mesenteric fat, and retroperitoneal fat). The collected samples were washed with 0.1 M phosphate buffered saline (pH 7.4) and then weighed. Blood samples collected from abdominal aortas were centrifuged at 1000×g for 15 minutes, thereby separating plasma.

[2] = test system: 3T3L1 cells; experiment: Adipocyte differentiation inhibition in preadipocytes (Oil-red O staining); assay type: cell-based, mouse; details: for adipocyte differentiation inhibition effect (in words): different concentrations
Procedure: Preadipocytes, 3T3L1 cells, were aliquoted into a 12-well plate and cultured in a DMEM medium containing 1% penicillin-streptomycin, 1% nonessential amino acid, and 10% fetal bovine serum (FBS) in a 5% CO2 incubator at 37° C. until confluence. The 3T3L1 cells grown to confluence were cultured for two days in a medium containing 0.5 mM isobutyl-methylxanthine, 1 μM dexamethasone (MDI), and 1 μg/ml insulin, thereby being differentiated into adipocytes. Subsequently, the differentiated adipocytes were further cultured for two days in a DMEM medium including 1 μg/ml insulin, thereby being differentiated into mature adipocytes. Subsequently, the differentiated mature adipocytes were further cultured for 10 days while replacing a used DMEM medium with a new DMEM medium every two days. As a result, completely differentiated adipocytes were formed.
3T3-L1 cells were treated with each of a total of four novel compound types at different concentrations every two days from the first day of cell differentiation induction by addition of DMI. Each of the derivative compounds was dissolved in DMSO and then used. A negative control group including only DMSO was included in this experiment. Cell culture was carried out for 14 days. When differentiation was completed, a medium was removed and lipid droplets contained in differentiated adipocytes were stained. To stain the lipid droplets, cells were washed with phosphate buffered saline (PBS) twice and then fixed with 10% buffered neutral formalin for one hour, followed by washing with PBS once. Subsequently, 1 ml of Oil-red-O dye for staining lipid droplets red was fed into a 12-well plate and lipid droplets were stained for one hour, followed by washing with distilled water twice. To measure the concentration of neutral fat contained in the differentiated 3T3L1 cells, the stained lipid droplets were dissolved in 1 ml of isobutanol, followed by measuring an O.D value at 600 nm.

| Compound | visceral fat reduction effect, change vs HFD (given with minus sign) [1] | weight reduction effect, change in cumulative weight gain vs HFD (given with minus sign) [1] | EC50 ([2]; Mus musculus, 3T3-L1, treated every two days during 14 days differentiation, Oil-red O O.D. 600 nm, read-out: preadipocyte differentiation inhibition effect, EC50 value) | adipocyte differentiation inhibition effect (in words) [2] |
| --- | --- | --- | --- | --- |
| COc1ccc(OC)c(/C=C/C=C/C(=O)N2CCCCC2)c1 [LJ-2488, (2E,4E)-5-(2,5-dimethoxyphenyl)-1-(piperine-1-yl)penta-2,4-diene-1-one] | −6% | −14% | 2800 µM | – |
| CCOc1ccc(/C=C/C=C/C(=O)N2CCCCC2)cc1 [LJ-2495, (2E,4E)-5-(4-ethoxyphenyl)-1-(piperine-1-yl)penta-2,4-diene-1-one] | – | – | – | did not exhibit an adipocyte differentiation inhibition effect |
| CCCOc1ccc(/C=C/C=C/C(=O)N2CCCCC2)cc1 [LJ-2496, (2E,4E)-1-(piperine-1-yl)-5-(4-propoxyphenyl)penta-2,4-diene-1-one] | – | – | – | did not exhibit an adipocyte differentiation inhibition effect |
| CC(C)CC(N(C)C)C1(c2ccc(Cl)cc2)CCC1 (stereo not shown) [sibutramine, reference compound] | −22% | −33% | – | – |
